# Assays:
# H1 = H1 (Homo sapiens, UniProt P35367); assay: Histamine receptor H1 binding; details: [^3H]pyrilamine, Human recombinant HEK-293 cells, read-out: CR6086 Activity at 10µM
# 5-HT6 = 5-HT6 (Homo sapiens, UniProt P50406); assay: Serotonin receptor 5-HT6 binding; details: [^3H]LSD, Human recombinant CHO cells, read-out: CR6086 Activity at 10µM
# B2 = B2 (Homo sapiens, UniProt P30411); assay: B2 receptor binding; details: [^3H]bradykinin, Human recombinant CHO cells, read-out: CR6086 Activity at 10µM
# Sequence of B2 (P30411 whole entry): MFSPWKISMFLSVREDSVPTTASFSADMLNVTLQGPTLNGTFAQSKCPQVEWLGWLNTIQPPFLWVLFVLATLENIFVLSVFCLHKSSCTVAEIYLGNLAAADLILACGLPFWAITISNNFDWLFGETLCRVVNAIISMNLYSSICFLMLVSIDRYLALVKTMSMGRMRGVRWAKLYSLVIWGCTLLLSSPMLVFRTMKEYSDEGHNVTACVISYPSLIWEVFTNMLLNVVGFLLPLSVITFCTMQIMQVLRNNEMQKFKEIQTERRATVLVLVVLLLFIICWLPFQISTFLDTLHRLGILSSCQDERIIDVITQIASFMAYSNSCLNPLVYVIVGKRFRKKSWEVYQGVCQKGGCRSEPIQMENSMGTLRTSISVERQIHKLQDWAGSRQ
# σ (non-selective) = assay: σ receptor (non-selective) binding; details: [^3H]DTG, Rat cerebral cortex
# mouse EP4 receptor = biological target: T1, mouse EP4 receptor (Mus musculus, UniProt P32240); assay: EP4 radioligand binding assay ([^3H]PGE2), mouse receptor; details: [^3H]PGE2 displacement; transiently transfected HEK293 membranes; read-out: Ki CR6086
# T1 construct: the cDNA encoding the full-length rat (NM_032076) or mouse (NM_001136079) EP4 receptors; host or cells: HEK293 (transient)
# T1 sequence (P32240 whole entry): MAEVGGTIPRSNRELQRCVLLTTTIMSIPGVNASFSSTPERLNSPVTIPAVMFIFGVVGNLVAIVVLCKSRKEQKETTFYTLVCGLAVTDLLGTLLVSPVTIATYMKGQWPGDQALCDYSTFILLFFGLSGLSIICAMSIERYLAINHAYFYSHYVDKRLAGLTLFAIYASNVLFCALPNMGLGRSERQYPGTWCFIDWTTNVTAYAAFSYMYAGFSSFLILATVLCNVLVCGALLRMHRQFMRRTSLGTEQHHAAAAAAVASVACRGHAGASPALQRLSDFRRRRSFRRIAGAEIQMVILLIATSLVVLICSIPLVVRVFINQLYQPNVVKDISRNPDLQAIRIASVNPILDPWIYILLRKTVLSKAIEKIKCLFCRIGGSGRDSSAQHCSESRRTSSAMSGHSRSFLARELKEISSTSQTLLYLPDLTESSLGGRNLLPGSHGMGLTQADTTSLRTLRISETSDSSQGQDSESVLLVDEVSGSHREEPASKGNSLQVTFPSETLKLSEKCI
# From the text: For rodent EP4 receptor cloning, the cDNA encoding the full-length rat (NM_032076) or mouse (NM_001136079) EP4 receptors cloned in pCMV6 entry was provided by OriGene Inc. (TrueORF Gold, catalogue numbers RN206839 and MC216813; OriGene, Rockville, MD, USA). Expression of rat and mouse receptors was obtained by transfecting HEK293 cells with the respective vector using Lipofectamine 3000 reagent (Thermo Fisher Scientific) according to the manufacturer’s instructions.
# Membranes expressing the human EP4 receptor were prepared from stably transfected HEK293 cell line. […] Protein content of the cell membrane suspension was determined using bovine serum albumin (BSA) as a standard.
# Experimental procedures were performed according to the method of Abramovitz et al.. […] The residual [^3H]PGE2 binding was determined using a solid scintillation counter (TopCount; PerkinElmer) after at least 1 h of stabilisation. In saturation binding studies, isotherm-binding curves generated with six to eight different concentrations of [^3H]PGE2 (from 0.5 to 25 nM) were evaluated. […]
# Specific binding to the receptors was defined as the difference between total binding and non-specific binding, as determined in the presence of an excess of unlabelled ligand. […] Competition curves were analysed to assess the half-maximal inhibitory concentration (IC50). […] The results of replicated curves were expressed as mean ± SEM.
# IP (PGI2) = IP (PGI2) (Homo sapiens, UniProt P43119); assay: Eicosanoid receptor IP binding; details: [^3H]iloprost, HEK-293 cells, read-out: CR6086 Activity at 10µM
# Sequence of IP (PGI2) (P43119 whole entry): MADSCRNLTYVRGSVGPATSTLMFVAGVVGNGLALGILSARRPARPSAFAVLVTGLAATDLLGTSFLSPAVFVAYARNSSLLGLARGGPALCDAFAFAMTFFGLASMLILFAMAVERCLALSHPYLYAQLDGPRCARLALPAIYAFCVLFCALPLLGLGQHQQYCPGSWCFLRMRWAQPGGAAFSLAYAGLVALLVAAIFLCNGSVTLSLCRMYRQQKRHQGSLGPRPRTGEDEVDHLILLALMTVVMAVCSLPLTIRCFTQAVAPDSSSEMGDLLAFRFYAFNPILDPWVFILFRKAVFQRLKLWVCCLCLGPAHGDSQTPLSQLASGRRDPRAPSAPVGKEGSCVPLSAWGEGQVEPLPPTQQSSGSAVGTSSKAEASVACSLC
# α1 (non-selective) = assay: Adrenergic receptor α1 binding; details: [^3H]prazosin, Rat cerebral cortex
# Dopamine transporter = Dopamine transporter (Homo sapiens, UniProt Q01959); assay: Dopamine transporter binding; details: [^3H]BTCP, Human recombinant CHO cells, read-out: CR6086 Activity at 10µM
# Sequence of Dopamine transporter (Q01959 whole entry): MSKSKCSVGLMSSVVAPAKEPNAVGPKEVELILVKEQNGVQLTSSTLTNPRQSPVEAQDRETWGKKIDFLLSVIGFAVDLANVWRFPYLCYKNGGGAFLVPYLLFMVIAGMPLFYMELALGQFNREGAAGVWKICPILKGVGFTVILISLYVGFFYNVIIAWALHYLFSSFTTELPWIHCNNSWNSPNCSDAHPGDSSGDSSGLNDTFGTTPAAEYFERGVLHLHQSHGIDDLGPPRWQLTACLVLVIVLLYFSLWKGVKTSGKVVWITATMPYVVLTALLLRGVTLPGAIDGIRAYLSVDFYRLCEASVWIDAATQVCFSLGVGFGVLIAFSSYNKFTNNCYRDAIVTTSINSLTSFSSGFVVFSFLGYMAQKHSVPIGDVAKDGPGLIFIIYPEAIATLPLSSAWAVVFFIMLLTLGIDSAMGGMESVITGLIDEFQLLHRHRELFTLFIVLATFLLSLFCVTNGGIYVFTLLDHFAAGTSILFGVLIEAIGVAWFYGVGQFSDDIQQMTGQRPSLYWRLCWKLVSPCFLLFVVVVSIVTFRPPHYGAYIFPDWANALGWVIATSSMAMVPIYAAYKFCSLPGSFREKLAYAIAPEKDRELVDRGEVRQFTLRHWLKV
# M5 = M5 (Homo sapiens, UniProt P08912); assay: Muscarinic acetylcholine receptor M5 binding; details: [^3H]4-DAMP, Human recombinant CHO cells, read-out: CR6086 Activity at 10µM
# Sequence of M5 (P08912 whole entry): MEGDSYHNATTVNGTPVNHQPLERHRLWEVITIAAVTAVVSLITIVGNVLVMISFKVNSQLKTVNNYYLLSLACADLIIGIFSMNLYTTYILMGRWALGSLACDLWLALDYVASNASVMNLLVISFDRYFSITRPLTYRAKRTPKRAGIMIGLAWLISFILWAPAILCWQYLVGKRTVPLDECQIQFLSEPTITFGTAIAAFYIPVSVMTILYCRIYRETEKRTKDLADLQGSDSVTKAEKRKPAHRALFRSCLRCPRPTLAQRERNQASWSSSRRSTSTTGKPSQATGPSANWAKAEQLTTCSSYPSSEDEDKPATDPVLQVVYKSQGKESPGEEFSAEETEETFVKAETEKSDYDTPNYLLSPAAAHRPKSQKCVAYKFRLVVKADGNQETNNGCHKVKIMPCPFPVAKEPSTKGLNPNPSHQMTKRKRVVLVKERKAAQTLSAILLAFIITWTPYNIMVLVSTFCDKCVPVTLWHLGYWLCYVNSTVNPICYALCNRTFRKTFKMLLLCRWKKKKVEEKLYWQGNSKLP
# Sequence of 5-HT6 (P50406 whole entry): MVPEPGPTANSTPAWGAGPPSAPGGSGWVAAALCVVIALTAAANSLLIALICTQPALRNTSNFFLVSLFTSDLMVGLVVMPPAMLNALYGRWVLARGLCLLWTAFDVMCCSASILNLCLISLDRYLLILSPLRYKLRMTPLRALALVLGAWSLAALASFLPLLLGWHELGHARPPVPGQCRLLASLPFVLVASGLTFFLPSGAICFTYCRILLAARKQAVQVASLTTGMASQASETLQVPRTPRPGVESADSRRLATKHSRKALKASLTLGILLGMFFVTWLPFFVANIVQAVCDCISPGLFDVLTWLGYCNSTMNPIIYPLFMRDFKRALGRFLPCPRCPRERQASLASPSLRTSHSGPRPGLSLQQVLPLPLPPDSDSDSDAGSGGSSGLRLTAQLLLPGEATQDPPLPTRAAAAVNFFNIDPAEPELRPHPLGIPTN
# Sequence of H1 (P35367 whole entry): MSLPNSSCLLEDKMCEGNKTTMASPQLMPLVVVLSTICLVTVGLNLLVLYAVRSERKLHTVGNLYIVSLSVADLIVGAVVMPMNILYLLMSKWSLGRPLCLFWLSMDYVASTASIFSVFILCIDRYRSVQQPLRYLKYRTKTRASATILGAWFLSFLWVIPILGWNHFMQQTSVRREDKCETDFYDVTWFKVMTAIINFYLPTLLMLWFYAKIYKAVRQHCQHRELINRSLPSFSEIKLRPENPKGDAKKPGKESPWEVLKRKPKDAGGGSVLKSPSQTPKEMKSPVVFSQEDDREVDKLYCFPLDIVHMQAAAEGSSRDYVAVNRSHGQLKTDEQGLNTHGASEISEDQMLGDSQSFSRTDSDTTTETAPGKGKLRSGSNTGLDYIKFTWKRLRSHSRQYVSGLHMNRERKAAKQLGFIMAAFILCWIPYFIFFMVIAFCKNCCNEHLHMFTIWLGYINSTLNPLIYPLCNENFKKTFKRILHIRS
compound,measurement,setting,value
"O=C([O-])c1ccc(C2(NC(=O)[C@H]3CC4(CCN3Cc3ccc(C(F)(F)F)cc3)CC4)CC2)cc1.[Na+] [CR6086, Sodium (R)-4-(1-(6-(4-(trifluoromethyl)benzyl)-6-azaspiro[2.5]octane-5-carboxamido)cyclopropyl)benzoate]",inhibition at 10 µM,H1,< 20%
same,inhibition at 10 µM,5-HT6,< 20%
same,inhibition at 10 µM,B2,< 20%
same,CR6086 Activity at 10µM,σ (non-selective),IN (IN = < 20% displacement or inhibition (all tables))
same,Ki,mouse EP4 receptor,75.9 ± 7.6 nM
same,inhibition at 10 µM,IP (PGI2),< 20%
same,CR6086 Activity at 10µM,α1 (non-selective),IN (IN = < 20% displacement or inhibition (all tables))
same,inhibition at 10 µM,Dopamine transporter,< 20%
same,inhibition at 10 µM,M5,< 20%

# From publication PMC5831858, “Pharmacological characterisation of CR6086, a potent prostaglandin E2 receptor 4 antagonist, as a new potential disease-modifying anti-rheumatic drug” (Arthritis Research & Therapy, 2018)
